PubChem BioAssay AID1259407 (Chemical Carcinogenesis Research Information System (CCRIS), 2018)
The source made the active and inactive calls. How the calls were made is not given here.

Tested on: CCRIS mutagenicity, Ames/micronucleus/aberration tests
Test: CCRIS mutagenicity studies
[1] = Test System: AMES SALMONELLA TYPHIMURIUM, Strain/Indicator: TA98, Metabolic Activation: HAMSTER, LIVER, S-9, AROCLOR 1254 (10%), Method: PREINCUBATION
[2] = Test System: AMES SALMONELLA TYPHIMURIUM, Strain/Indicator: TA98, Metabolic Activation: NONE, Method: PREINCUBATION
[3] = Test System: AMES SALMONELLA TYPHIMURIUM, Strain/Indicator: TA98, Metabolic Activation: RAT, LIVER, S-9, AROCLOR 1254 (10%), Method: PREINCUBATION
[4] = Test System: AMES SALMONELLA TYPHIMURIUM, Strain/Indicator: TA100, Metabolic Activation: HAMSTER, LIVER, S-9, AROCLOR 1254 (10%), Method: PREINCUBATION
[5] = Test System: AMES SALMONELLA TYPHIMURIUM, Strain/Indicator: TA100, Metabolic Activation: NONE, Method: PREINCUBATION
[6] = Test System: AMES SALMONELLA TYPHIMURIUM, Strain/Indicator: TA100, Metabolic Activation: RAT, LIVER, S-9, AROCLOR 1254 (10%), Method: PREINCUBATION
[7] = Test System: AMES SALMONELLA TYPHIMURIUM, Strain/Indicator: TA1535, Metabolic Activation: HAMSTER, LIVER, S-9, AROCLOR 1254 (10%), Method: PREINCUBATION
[8] = Test System: AMES SALMONELLA TYPHIMURIUM, Strain/Indicator: TA1535, Metabolic Activation: NONE, Method: PREINCUBATION
[9] = Test System: AMES SALMONELLA TYPHIMURIUM, Strain/Indicator: TA1535, Metabolic Activation: RAT, LIVER, S-9, AROCLOR 1254 (10%), Method: PREINCUBATION

## O=C(O)c1ccc2c(c1)C(=O)OC2=O
[1]
  mutagenic call: inactive; negative
[2]
  mutagenic call: inactive; negative
Test System: AMES SALMONELLA TYPHIMURIUM, Strain/Indicator: TA98, Metabolic Activation: RAT LIVER S-9, PHENOBARBITAL AND BETA-NAPHTHOFLAVONE, Method: PREINCUBATION
  mutagenic call: inactive; negative
[3]
  mutagenic call: inactive; negative
[4]
  mutagenic call: inactive; negative
[5]
  mutagenic call: inactive; negative
Test System: AMES SALMONELLA TYPHIMURIUM, Strain/Indicator: TA100, Metabolic Activation: RAT LIVER S-9, PHENOBARBITAL AND BETA-NAPHTHOFLAVONE, Method: PREINCUBATION
  mutagenic call: inactive; negative
[6]
  mutagenic call: inactive; negative
Test System: AMES SALMONELLA TYPHIMURIUM, Strain/Indicator: TA102, Metabolic Activation: NONE, Method: PREINCUBATION
  mutagenic call: inactive; negative
Test System: AMES SALMONELLA TYPHIMURIUM, Strain/Indicator: TA102, Metabolic Activation: RAT LIVER S-9, PHENOBARBITAL AND BETA-NAPHTHOFLAVONE, Method: PREINCUBATION
  mutagenic call: inactive; negative
Test System: AMES SALMONELLA TYPHIMURIUM, Strain/Indicator: TA104, Metabolic Activation: NONE, Method: PREINCUBATION
  mutagenic call: inactive; negative
Test System: AMES SALMONELLA TYPHIMURIUM, Strain/Indicator: TA104, Metabolic Activation: RAT LIVER S-9, PHENOBARBITAL AND BETA-NAPHTHOFLAVONE, Method: PREINCUBATION
  mutagenic call: inactive; negative
[7]
  mutagenic call: inactive; negative
[8]
  mutagenic call: inactive; negative
Test System: AMES SALMONELLA TYPHIMURIUM, Strain/Indicator: TA1535, Metabolic Activation: RAT LIVER S-9, PHENOBARBITAL AND BETA-NAPHTHOFLAVONE, Method: PREINCUBATION
  mutagenic call: inactive; negative
[9]
  mutagenic call: inactive; negative
Test System: AMES SALMONELLA TYPHIMURIUM, Strain/Indicator: TA1537, Metabolic Activation: HAMSTER, LIVER, S-9, AROCLOR 1254 (10%), Method: PREINCUBATION
  mutagenic call: inactive; negative
Test System: AMES SALMONELLA TYPHIMURIUM, Strain/Indicator: TA1537, Metabolic Activation: NONE, Method: PREINCUBATION
  mutagenic call: inactive; negative
Test System: AMES SALMONELLA TYPHIMURIUM, Strain/Indicator: TA1537, Metabolic Activation: RAT LIVER S-9, PHENOBARBITAL AND BETA-NAPHTHOFLAVONE, Method: PREINCUBATION
  mutagenic call: inactive; negative
Test System: AMES SALMONELLA TYPHIMURIUM, Strain/Indicator: TA1537, Metabolic Activation: RAT, LIVER, S-9, AROCLOR 1254 (10%), Method: PREINCUBATION
  mutagenic call: inactive; negative
Test System: E.COLI, Strain/Indicator: WP2UVRA/PKM101, Metabolic Activation: NONE, Method: PREINCUBATION
  mutagenic call: inactive; negative
Test System: E.COLI, Strain/Indicator: WP2UVRA/PKM101, Metabolic Activation: RAT LIVER S-9, PHENOBARBITAL AND BETA-NAPHTHOFLAVONE, Method: PREINCUBATION
  mutagenic call: inactive; negative
Test System: E.COLI, Strain/Indicator: WP2UVRA, Metabolic Activation: NONE, Method: PREINCUBATION
  mutagenic call: inactive; negative
Test System: E.COLI, Strain/Indicator: WP2UVRA, Metabolic Activation: RAT LIVER S-9, PHENOBARBITAL AND BETA-NAPHTHOFLAVONE, Method: PREINCUBATION
  mutagenic call: inactive; negative

## Cc1cc(Cl)ccc1OCC(=O)O
Test System: AMES SALMONELLA TYPHIMURIUM, Strain/Indicator: TA97, Metabolic Activation: NONE, Method: STANDARD PLATE
  mutagenic call: inactive; negative
Test System: AMES SALMONELLA TYPHIMURIUM, Strain/Indicator: TA97, Metabolic Activation: RAT, LIVER, S-9, AROCLOR 1254, Method: STANDARD PLATE
  mutagenic call: inactive; negative
Test System: AMES SALMONELLA TYPHIMURIUM, Strain/Indicator: TA97A, Metabolic Activation: NONE, Method: STANDARD PLATE
  mutagenic call: inactive; negative
Test System: AMES SALMONELLA TYPHIMURIUM, Strain/Indicator: TA97A, Metabolic Activation: RAT, LIVER, S-9, AROCLOR 1254, Method: STANDARD PLATE
  mutagenic call: inactive; negative
Test System: AMES SALMONELLA TYPHIMURIUM, Strain/Indicator: TA98, Metabolic Activation: NONE, Method: STANDARD PLATE
  mutagenic call: inactive; negative
Test System: AMES SALMONELLA TYPHIMURIUM, Strain/Indicator: TA98, Metabolic Activation: RAT, LIVER, S-9, AROCLOR 1254, Method: STANDARD PLATE
  mutagenic call: inactive; negative
Test System: AMES SALMONELLA TYPHIMURIUM, Strain/Indicator: TA100, Metabolic Activation: NONE, Method: STANDARD PLATE
  mutagenic call: inactive; negative
Test System: AMES SALMONELLA TYPHIMURIUM, Strain/Indicator: TA100, Metabolic Activation: RAT, LIVER, S-9, AROCLOR 1254, Method: STANDARD PLATE
  mutagenic call: inactive; negative
Test System: AMES SALMONELLA TYPHIMURIUM, Strain/Indicator: TA102, Metabolic Activation: NONE, Method: STANDARD PLATE
  mutagenic call: inactive; negative
Test System: AMES SALMONELLA TYPHIMURIUM, Strain/Indicator: TA102, Metabolic Activation: RAT, LIVER, S-9, AROCLOR 1254, Method: STANDARD PLATE
  mutagenic call: inactive; negative
Test System: AMES SALMONELLA TYPHIMURIUM, Strain/Indicator: TA1535, Metabolic Activation: NONE, Method: STANDARD PLATE
  mutagenic call: inactive; negative
Test System: AMES SALMONELLA TYPHIMURIUM, Strain/Indicator: TA1535, Metabolic Activation: RAT, LIVER, S-9, AROCLOR 1254, Method: STANDARD PLATE
  mutagenic call: inactive; negative
Test System: AMES SALMONELLA TYPHIMURIUM, Strain/Indicator: TA1537, Metabolic Activation: NONE, Method: STANDARD PLATE
  mutagenic call: inactive; negative
Test System: AMES SALMONELLA TYPHIMURIUM, Strain/Indicator: TA1537, Metabolic Activation: RAT, LIVER, S-9, AROCLOR 1254, Method: STANDARD PLATE
  mutagenic call: inactive; negative
Test System: AMES SALMONELLA TYPHIMURIUM, Strain/Indicator: TA1538, Metabolic Activation: NONE, Method: STANDARD PLATE
  mutagenic call: inactive; negative
Test System: AMES SALMONELLA TYPHIMURIUM, Strain/Indicator: TA1538, Metabolic Activation: RAT, LIVER, S-9, AROCLOR 1254, Method: STANDARD PLATE
  mutagenic call: inactive; negative

## COc1ccc(C(=O)/C(Br)=C\C(=O)O)cc1
End Point: IN VITRO CHROMOSOMAL ABERRATIONS, Test System: CHO CELLS, Metabolic Activation: NONE
  mutagenic call: active; positive
End Point: IN VITRO CHROMOSOMAL ABERRATIONS, Test System: CHO CELLS, Metabolic Activation: RAT, LIVER, S-9, AROCLOR 1254
  mutagenic call: active; positive
Test System: AMES SALMONELLA TYPHIMURIUM, Strain/Indicator: TA97, Metabolic Activation: HAMSTER, LIVER, S-9, AROCLOR 1254 (10%), Method: PREINCUBATION
  mutagenic call: active; positive
Test System: AMES SALMONELLA TYPHIMURIUM, Strain/Indicator: TA97, Metabolic Activation: NONE, Method: PREINCUBATION
  mutagenic call: active; positive
Test System: AMES SALMONELLA TYPHIMURIUM, Strain/Indicator: TA97, Metabolic Activation: RAT, LIVER, S-9, AROCLOR 1254 (10%), Method: PREINCUBATION
  mutagenic call: active; positive
[1]
  mutagenic call: active; positive
[2]
  mutagenic call: active; positive
[3]
  mutagenic call: active; positive
[4]
  mutagenic call: active; positive
[5]
  mutagenic call: active; positive
[6]
  mutagenic call: active; positive
[7]
  mutagenic call: active; positive
[8]
  mutagenic call: inactive; negative
[9]
  mutagenic call: active; positive
Test System: MOUSE LYMPHOMA, Strain/Indicator: L5178Y (TK+/TK-), Metabolic Activation: NONE, Method: SUSPENSION/PLATE
  mutagenic call: active; positive
Test System: UDS RODENT HEPATOCYTES, Strain/Indicator: THY INCORP (NON-S-PHASE), Metabolic Activation: 3-METHYLCHOLANTHRENE, Method: AUTORADIOGRAPHY
  mutagenic call: active; positive
Test System: UDS RODENT HEPATOCYTES, Strain/Indicator: THY INCORP (NON-S-PHASE), Metabolic Activation: AROCLOR, Method: AUTORADIOGRAPHY
  mutagenic call: active; positive
Test System: UDS RODENT HEPATOCYTES, Strain/Indicator: THY INCORP (NON-S-PHASE), Metabolic Activation: NONE, Method: AUTORADIOGRAPHY
  mutagenic call: inactive; negative
